# From patent US20130096067A1, “DROSOPHILA TUMOR STEM CELL MODEL AND USES THEREOF” (priority 2011, published 2013)
# Like-named read-outs stand apart in the source and are kept apart here.
# Test system: Raf-1^gof intestinal tumors
# Conditions: for Log2 (fold) (luciferase activity, log2 of the fold difference relative to DMSO controls) / Fold (luciferase activity, fold difference relative to DMSO controls): screen of 480 ICCB compounds in vials, compounds fed to flies with one-day old Raf-1^gof tumors, esg-Gal4 luciferase
# [1] = ICCB compounds fed in vials to flies with one-day old Raf-1^gof tumors, assessed three days later
# [2] = ICCB compounds fed in vials to flies with one-day old Raf-1^gof tumors, assessed three days later, averaged from multiple wells
# [3] = assessed three days later, averaged from multiple wells
# Also: test concentration or dose not given here.
SMILES,Log2 (fold) of luciferase activity relative to DMSO controls [1],Fold (luciferase activity relative to DMSO controls) [2] [fold],"Log2 (fold) (luciferase activity, log2 of the fold difference relative to DMSO controls) (assessed three days later)","Fold (luciferase activity, fold difference relative to DMSO controls) [3]",other results
"CCCCCCCCCCCC=CCC=CCCCC(=O)O [EICOSA-5,8-DIENOIC ACID (20:2 n-12)]",−0.149,0.902,,,
CCCCC/C=C\C/C=C\CCCCCCCCCC(=O)O [EICOSADIENOIC ACID (20:2 n-6)],−0.093,0.938,,,
CC/C=C\C/C=C\C/C=C\C/C=C\C/C=C\CCCC(=O)O [EICOSAPENTAENOIC ACID (20:5 n-3)],0.024,1.017,,,
CC/C=C\C/C=C\C/C=C\CCCCCCCCCC(=O)O [EICOSATRIENOIC ACID (20:3 n-3)],0.198,1.147,,,
CCCCCCCCCCCCCCCCOCC(COP(=O)([O-])OCC[N+](C)(C)C)OC(C)=O (stereo not drawn) [ENANTIO-PAF C16],−0.051,0.965,,,
C[C@]12CC[C@@H]3c4ccc(O)cc4CC[C@H]3[C@@H]1CC[C@@H]2O [ESTRADIOL],−0.160,0.895,,,
O=c1c2ccccc2[se]n1-c1ccccc1 [Ebselen],−0.168,0.890,,,
CC(C)=CCC/C(C)=C/CC/C(C)=C/CSCC(=O)O [FARNESYLTHIOACETIC ACID],,,−0.295,0.815,
N#CC(C#N)=NNc1ccc(OC(F)(F)F)cc1 [FCCP],,,−0.313,0.805,
C=CC[C@@H]1/C=C(\C)C[C@H](C)C[C@H](OC)[C@H]2O[C@@](O)(C(=O)C(=O)N3CCCC[C@H]3C(=O)O[C@H](/C(C)=C/[C@@H]3CC[C@@H](O)[C@H](OC)C3)[C@H](C)[C@@H](O)CC1=O)[C@H](C)C[C@@H]2OC [FK-506],,,−0.699,0.616,
O=C(NCC1CCCCN1)c1cc(OCC(F)(F)F)ccc1OCC(F)(F)F (stereo not drawn) [FLECAINIDE],,,−0.253,0.839,
O=C(O)c1ccccc1Nc1cccc(C(F)(F)F)c1 [FLUFENAMIC ACID],,,−0.214,0.862,
Fc1ccc(C(c2ccc(F)cc2)N2CCN(C/C=C/c3ccccc3)CC2)cc1 [FLUNARIZINE],,,−0.836,0.560,
O=C1NCN(c2ccccc2)C12CCN(CCCC(c1ccc(F)cc1)c1ccc(F)cc1)CC2 [FLUSPIRILINE],−0.192,0.875,,,
COC(=O)c1c(C)[nH]c(C)c1C(=O)c1ccccc1Cc1ccccc1 [FPL-64176],−0.166,0.891,,,
CCCC[C@@H](C)[C@@H](OC(=O)C[C@@H](CC(=O)O)C(=O)O)[C@H](C[C@@H](C)C[C@H](O)CCCC[C@@H](O)C[C@H](O)[C@H](C)N)OC(=O)C[C@@H](CC(=O)O)C(=O)O [Fumonisin B1],,,−0.685,0.622,
N#Cc1c(-c2ccccc2)no[n+]1[O-] [Furoxan],,,−0.280,0.823,
CCCCC/C=C\C/C=C\C/C=C\CCCCC(=O)O [GAMMA-LINOLENIC ACID (18:3 n-6)],−0.145,0.904,,,
CN(C)CCCn1cc(C2=C(c3c[nH]c4ccccc34)C(=O)NC2=O)c2ccccc21 [GF-109203X],,,−0.238,0.848,
CCCCC[C@H](O)CC(=O)CCc1ccc(O)c(OC)c1 [GINGEROL],,,−0.273,0.827,
Cc1cnc(C(=O)NCCc2ccc(S(=O)(=O)NC(=O)NC3CCCCC3)cc2)cn1 [GLIPIZIDE],,,−0.417,0.749,
COc1ccc(Cl)cc1C(=O)NCCc1ccc(S(=O)(=O)NC(=O)NC2CCCCC2)cc1 [GLYBURIDE],,,−0.217,0.861,
CNC(=O)[C@H](Cc1c[nH]c2ccccc12)NC(=O)[C@@H](CC(=O)NO)CC(C)C [GM6001],0.173,1.128,,,
CC1(O)CC23CC(O)C4(O)C(CC(O)C4(C)C)C(C)(O)C2CCC1C3O (stereo not drawn) [GR[…]],,,−0.553,0.682,

SMILES,Log2 (fold) of luciferase activity relative to DMSO controls [1],Fold (luciferase activity relative to DMSO controls) [2] [fold],"Log2 (fold) (luciferase activity, log2 of the fold difference relative to DMSO controls) (assessed three days later)","Fold (luciferase activity, fold difference relative to DMSO controls) [3]",other results
O=C1Nc2ccc(I)cc2/C1=C/c1cc(Br)c(O)c(Br)c1 [GW-5074],,,−0.369,0.774,
O=C(Nc1ccccc1)c1cc([N+](=O)[O-])ccc1Cl [GW-9662],,,−0.581,0.669,
CN1C(=O)[C@]23CC4=CC=C[C@H](O)[C@H]4N2C(=O)[C@@]1(CO)SS3 [Gliotoxin],,,−0.478,0.718,
Cn1c2ccccc2c2c3c(c4c5ccccc5n(CCC#N)c4c21)CNC3=O [Go6976],,,−0.287,0.819,
O=S(=O)(c1cccc2cnccc12)N1CCCNCC1 [HA1077],,,−0.326,0.798,
NC(N)=NCCNS(=O)(=O)c1cccc2cnccc12 [HA-1004],,,−0.372,0.773,
COCc1cc(O)c(O)c(O)c1-c1c(COC)cc(O)c(O)c1O [HBDDE],,,−0.233,0.851,
NCCc1c[nH]cn1 [HISTAMINE],−0.158,0.896,,,
CC(=O)OCOC(c1ccc2ccccc2c1)P(=O)(OCOC(C)=O)OCOC(C)=O (stereo not drawn) [HNMPA-(AM)3],−0.049,0.966,,,
C=C1C(=O)O[C@@H]2C[C@@H](C)[C@@H]3C=CC(=O)[C@@]3(C)[C@@H](O)[C@H]12 [Helenalin],,,,,Fold (luciferase activity relative to DMSO controls) (in vivo): 1.112 fold; Log2 (fold) of luciferase activity relative to DMSO controls (in vivo): 0.154
CC(C)c1cccc(=O)c(O)c1 [Hinokitiol],,,−0.240,0.847,
C/C=C1\[C@H]2C=C(C)C[C@]1(N)c1ccc(=O)[nH]c1C2 [Huperzine A [(−)-Huperzine A]],,,−0.641,0.641,
CC1(C2CCCC2)Cc2cc(OCC(=O)O)c(Cl)c(Cl)c2C1=O (stereo not drawn) [IAA-94],0.061,1.043,,,
CNC(=O)[C@H]1O[C@@H](n2cnc3c(NCc4cccc(I)c4)ncnc32)[C@H](O)[C@@H]1O [IB-MECA],−0.083,0.944,,,
CC(C)Cn1c(=O)n(C)c(=O)c2[nH]cnc21 [IBMX],,,−0.297,0.814,
O=C1Nc2ccccc2/C1=C1/Nc2ccccc2/C1=N\O [Indirubin-3′-monoxime],−0.025,0.983,,,
O=C1Nc2ccccc2/C1=C1/Nc2ccccc2C1=O [Indirubin],−0.103,0.931,,,
COC(=O)[C@@]1(O)C[C@H]2O[C@]1(C)n1c3ccccc3c3c4c(c5c6ccccc6n2c5c31)C(=O)NC4 [K252A],0.364,1.287,,,
CCCCCCOC(=O)[C@]1(O)C[C@@H]2O[C@@]1(C)n1c3ccccc3c3c4c(c5c6ccccc6n2c5c31)C(=O)NC4 [KT-5720],,,−0.246,0.843,
COC(=O)[C@@H](N)CCCNC(=N)N[N+](=O)[O-] [L-NAME],,,−0.446,0.734,
CCCCCCCCCCCCCCCC(=O)N[C@@H](COP(=O)(O)O)C(=O)O [L-NASPA],0.003,1.002,,,
COc1ccc([C@H]2Sc3ccccc3N(CCN(C)C)C(=O)[C@H]2OC(C)=O)cc1 [L-cis-DILTIAZEM],0.137,1.100,,,
"CCCCC/C=C\CC1OC1CCCCCCCC(=O)O (stereo not drawn) [LEUKOTOXIN A (9,10-EODE)]",,,−0.216,0.861,
CCCCC/C=C\C[C@@H](O)/C=C/C=C/C=C\[C@@H](O)CCCC(=O)O [LEUKOTRIENE B4],−0.037,0.975,,,
